Reference: patent US20240270762A1, “PENICILLIN-BINDING PROTEIN INHIBITORS” (priority 2021, published 2024)
≈ marks a conversion by molar mass, not a printed value.

Experiments:
[1] = molecular target: T1, PBP3 from Escherichia coli (K-12) (Escherichia coli, UniProt P0AD68); assay: Bocillin-FL fluorescence polarization competition binding, E. coli PBP3
T1 construct: made in house
Method in brief: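 Purified PBPs pre-incubated with inhibitor (E. coli PBP3 1.5 μM, 30 min; P. aeruginosa PBP3 0.75 μM, A. baumannii PBP1a 1 μM and PBP3 0.2 μM, 15 min), then Bocillin-FL 0.1 μM (0.05 μM for PBP1a) added; FP read up to 60 min. EC50 = concentration halving bound Bocillin-FL.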

[2] = system: A. baumannii CDC-0033; assay: microbe, parasite or virus in culture; type: cell-based; settings: Acinetobacter baumannii, CDC0033, read-out: MIC, A. baumannii CDC-0033
[3] = system: P. aeruginosa ATCC 35151; assay: microbe, parasite or virus in culture; type: cell-based; settings: Pseudomonas aeruginosa, ATCC35151, read-out: Minimum inhibitory concentration, P. aeruginosa ATCC 35151
[4] = system: A. baumannii CDC-0045; assay: microbe, parasite or virus in culture; type: cell-based; settings: Acinetobacter baumannii, CDC0045, read-out: MIC, A. baumannii CDC-0045
[5] = system: A. baumannii ATCC 19606; assay: microbe, parasite or virus in culture; type: cell-based; settings: Acinetobacter baumannii, ATCC19606, read-out: MIC, A. baumannii ATCC 19606
[6] = system: A. baumannii CDC-0036; assay: microbe, parasite or virus in culture; type: cell-based; settings: Acinetobacter baumannii, CDC0036, read-out: MIC, A. baumannii CDC-0036
[7] = system: P. aeruginosa (ΔmexAB-oprM); assay: Broth microdilution MIC in iron-depleted CAMHB (IDM); type: cell-based; settings: Pseudomonas aeruginosa; iron-depleted CAMHB (IDM); […]; read-out: Minimum inhibitory concentration, P. aeruginosa ΔmexAB-oprM
[8] = system: P. aeruginosa CDC-0090; assay: microbe, parasite or virus in culture; type: cell-based; settings: Pseudomonas aeruginosa, CDC0090, read-out: Minimum inhibitory concentration, P. aeruginosa CDC-0090
[9] = system: P. aeruginosa CDC-0095; assay: microbe, parasite or virus in culture; type: cell-based; settings: Pseudomonas aeruginosa, CDC0095, read-out: Minimum inhibitory concentration, P. aeruginosa CDC-0095
[10] = system: B. humptydooensis ATCC BAA-2767; assay: microbe, parasite or virus in culture; type: cell-based; settings: Burkholderia humptydooensis, ATCCBAA2767, read-out: Minimum inhibitory concentration (MIC), B. humptydooensis ATCC BAA-2767
[11] = system: A. baumannii ATCC 17978; assay: microbe, parasite or virus in culture; type: cell-based; settings: Acinetobacter baumannii, ATCC17978, read-out: MIC, A. baumannii ATCC 17978

T1 sequence (P0AD68 1-577): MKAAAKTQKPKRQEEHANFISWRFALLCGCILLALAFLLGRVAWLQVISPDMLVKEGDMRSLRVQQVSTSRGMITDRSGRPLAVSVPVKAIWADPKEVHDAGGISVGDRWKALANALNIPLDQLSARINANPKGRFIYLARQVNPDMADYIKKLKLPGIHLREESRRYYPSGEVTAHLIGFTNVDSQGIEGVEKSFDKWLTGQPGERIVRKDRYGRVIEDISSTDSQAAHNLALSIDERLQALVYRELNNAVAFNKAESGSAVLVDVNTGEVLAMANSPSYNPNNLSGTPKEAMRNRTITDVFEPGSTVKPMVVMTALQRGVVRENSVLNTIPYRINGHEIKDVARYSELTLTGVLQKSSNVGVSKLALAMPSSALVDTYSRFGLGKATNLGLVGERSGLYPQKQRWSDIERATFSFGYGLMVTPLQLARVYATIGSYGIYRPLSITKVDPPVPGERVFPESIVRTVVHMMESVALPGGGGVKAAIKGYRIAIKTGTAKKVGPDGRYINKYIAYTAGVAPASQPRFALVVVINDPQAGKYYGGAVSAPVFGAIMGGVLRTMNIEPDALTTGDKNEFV

Row | Compound | EC50 [1] [µM] | MIC [2] [µg/mL] | MIC [3] [µg/mL] | MIC [4] [µg/mL] | MIC [5] [µg/mL] | MIC [6] [µg/mL] | MIC [7] [µg/mL] | MIC [8] [µg/mL] | MIC [9] [µg/mL] | MIC [10] [µg/mL] | MIC [11] [µg/mL]
1 | CS(=O)(=O)N1CCN(C(=O)N[C@H](C(=O)N[C@H]2Cc3cccc(C(=O)O)c3OB2O)c2ccc(P(=O)(O)O)cc2)C1=O (single isomer, unassigned) [Example 5] | 50 to 250 |  |  |  |  |  |  |  |  |  | 
2 | CS(=O)(=O)N1CCN(C(=O)N[C@@H](C(=O)N[C@H]2Cc3cccc(C(=O)O)c3OB2O)c2ccc(P(=O)(O)O)cc2)C1=O (single isomer, unassigned) [Example 6] | < 10 | 32 to 64 (≈ 52.4 to 105 µM) | 2 to 4 (≈ 3.28 to 6.55 µM) | > 128 | 8 to 16 (≈ 13.1 to 26.2 µM) | 32 to 64 (≈ 52.4 to 105 µM) | 8 to 16 (≈ 13.1 to 26.2 µM) | > 128 | > 128 | 2 to 4 (≈ 3.28 to 6.55 µM) | 2 to 4 (≈ 3.28 to 6.55 µM)
3 | O=C(O)c1c(F)ccc2c1OB(O)[C@@H](NC(=O)[C@@H](NC(=O)N1CCN(C3CCN(C(=O)Nc4ccc(O)cc4)CC3)C1=O)c1cc(F)c(O)c(O)c1Cl)C2 (single isomer, unassigned) [Example 467] |  | < 1 | < 1 | < 1 | < 1 | < 1 | < 1 | < 1 | < 1 | 2 to 4 (≈ 2.59 to 5.18 µM) | < 1
4 | O=C(NCCCN1CCN(C(=O)N[C@H](C(=O)N[C@H]2Cc3ccc(F)c(C(=O)O)c3OB2O)c2cc(F)c(O)c(O)c2Cl)C(=O)C1=O)c1ccc(O)cc1Cl (single isomer, unassigned) [Example 470] | 50 to 250 | 8 to 16 (≈ 10.1 to 20.1 µM) | < 1 | > 128 | 8 to 16 (≈ 10.1 to 20.1 µM) | 32 to 64 (≈ 40.3 to 80.6 µM) | < 1 | 2 to 4 (≈ 2.52 to 5.04 µM) | < 1 | 8 to 16 (≈ 10.1 to 20.1 µM) | < 1
5 | O=C(NCCCN1CCN(C(=O)N[C@H](C(=O)N[C@H]2Cc3ccc(F)c(C(=O)O)c3OB2O)c2cc(F)c(O)c(O)c2Cl)C(=O)C1=O)c1cc(F)c(O)cc1F (single isomer, unassigned) [Example 472] | 50 to 250 | 8 to 16 (≈ 10.1 to 20.1 µM) | < 1 | 8 to 16 (≈ 10.1 to 20.1 µM) | 2 to 4 (≈ 2.51 to 5.03 µM) | 8 to 16 (≈ 10.1 to 20.1 µM) | < 1 | 2 to 4 (≈ 2.51 to 5.03 µM) | < 1 | 2 to 4 (≈ 2.51 to 5.03 µM) | < 1
6 | CCN1CCN(C(=O)NC(C(=O)N[C@H]2Cc3cccc(C(=O)O)c3OB2O)c2ccc(P(=O)(O)O)cc2F)C(=O)C1=O (stereo partly drawn) [Example 1, (3R)-3-(2-(4-ethyl-2,3-dioxopiperazine-1-carboxamido)-2-(2-fluoro-4-phosphonophenyl)acetamido)-2-hydroxy-3,4-dihydro-2H-benzo[e][1,2]oxaborinine-8-carboxylic acid] | < 10 |  |  |  |  |  |  |  |  |  | 
7 | CCN1CCN(C(=O)NC(C(=O)N[C@H]2Cc3cccc(C(=O)O)c3OB2O)c2cc(P(=O)(O)O)ccc2F)C(=O)C1=O (stereo partly drawn) [Example 2, (3R)-3-(2-(4-ethyl-2,3-dioxopiperazine-1-carboxamido)-2-(2-fluoro-5-phosphonophenyl)acetamido)-2-hydroxy-3,4-dihydro-2H-benzo[e][1,2]oxaborinine-8-carboxylic acid] | < 10 |  |  |  |  |  |  |  |  |  | 
8 | NCCN1CCN(C(=O)NC(C(=O)N[C@H]2Cc3cccc(C(=O)O)c3OB2O)c2ccc(P(=O)(O)O)cc2)C(=O)C1=O (stereo partly drawn) [Example 3, (3R)-3-(2-(4-(2-aminoethyl)-2,3-dioxopiperazine-1-carboxamido)-2-(4-phosphonophenyl)acetamido)-2-hydroxy-3,4-dihydro-2H-benzo[e][1,2]oxaborinine-8-carboxylic acid] | 10 to 50 |  |  |  |  |  |  |  |  |  | 
9 | O=C(O)c1cccc2c1OB(O)[C@@H](NC(=O)C(NC(=O)N1CCN(CC(F)(F)F)C(=O)C1=O)c1ccc(P(=O)(O)O)cc1)C2 (stereo partly drawn) [Example 4, (3R)-3-(2-(2,3-dioxo-4-(2,2,2-trifluoroethyl)piperazine-1-carboxamido)-2-(4-phosphonophenyl)acetamido)-2-hydroxy-3,4-dihydro-2H-benzo[e][1,2]oxaborinine-8-carboxylic acid] | < 10 |  |  |  |  |  |  |  |  |  | 
10 | O=C(NCCCS(=O)(=O)N1CCN(C(=O)NC(C(=O)N[C@H]2Cc3ccc(F)c(C(=O)O)c3OB2O)c2cc(F)c(O)c(O)c2Cl)C1=O)Nc1cccnc1 (stereo partly drawn) [Example 278, (3R)-3-(2-(2-chloro-5-fluoro-3,4-dihydroxyphenyl)-2-(2-oxo-3-((3-(3-(pyridin-3-yl)ureido)propyl)sulfonyl)imidazolidine-1-carboxamido)acetamido)-7-fluoro-2-hydroxy-3,4-dihydro-2H-benzo[e][1,2]oxaborinine-8-carboxylic acid] | < 10 | 8 to 16 (≈ 10.1 to 20.1 µM) | < 1 | < 1 | < 1 | 2 to 4 (≈ 2.51 to 5.03 µM) | < 1 | 2 to 4 (≈ 2.51 to 5.03 µM) | 8 to 16 (≈ 10.1 to 20.1 µM) | 2 to 4 (≈ 2.51 to 5.03 µM) | < 1
11 | O=C(NCCCN1CCN(C(=O)NC(C(=O)N[C@H]2Cc3ccc(F)c(C(=O)O)c3OB2O)c2cc(F)c(O)c(O)c2Cl)C1=O)c1cccnc1 (stereo partly drawn) [Example 281, (3R)-3-(2-(2-chloro-5-fluoro-3,4-dihydroxyphenyl)-2-(3-(3-(nicotinamido)propyl)-2-oxoimidazolidine-1-carboxamido)acetamido)-7-fluoro-2-hydroxy-3,4-dihydro-2H-benzo[e][1,2]oxaborinine-8-carboxylic acid] | 10 to 50 | 2 to 4 (≈ 2.79 to 5.58 µM) | < 1 | < 1 | < 1 | 2 to 4 (≈ 2.79 to 5.58 µM) | < 1 | 2 to 4 (≈ 2.79 to 5.58 µM) | 2 to 4 (≈ 2.79 to 5.58 µM) | < 1 | < 1
12 | O=C(NCCCN1CCN(C(=O)N[C@H](C(=O)N[C@H]2Cc3ccc(F)c(C(=O)O)c3OB2O)c2cc(F)c(O)c(O)c2Cl)C1=O)Nc1ccc(O)cc1 [Example 283, (R)-3-((S)-2-(2-chloro-5-fluoro-3,4-dihydroxyphenyl)-2-(3-(3-(3-(4-hydroxyphenyl)ureido)propyl)-2-oxoimidazolidine-1-carboxamido)acetamido)-7-fluoro-2-hydroxy-3,4-dihydro-2H-benzo[e][1,2]oxaborinine-8-carboxylic acid] | > 250 | > 128 | 2 to 4 (≈ 2.68 to 5.36 µM) | > 128 | > 128 | > 128 | > 128 | > 128 | > 128 | > 128 | > 128
13 | O=C(NCCS(=O)(=O)N1CCN(C(=O)N[C@H](C(=O)N[C@H]2Cc3ccc(F)c(C(=O)O)c3OB2O)c2cc(F)c(O)c(O)c2Cl)C1=O)c1ccc(O)cc1 [Example 286, (R)-3-((S)-2-(2-chloro-5-fluoro-3,4-dihydroxyphenyl)-2-(3-((2-(4-hydroxybenzamido)ethyl)sulfonyl)-2-oxoimidazolidine-1-carboxamido)acetamido)-7-fluoro-2-hydroxy-3,4-dihydro-2H-benzo[e][1,2]oxaborinine-8-carboxylic acid] | > 250 | > 128 | 8 to 16 (≈ 10.2 to 20.5 µM) | > 128 | > 128 | > 128 | > 128 | > 128 | > 128 | > 128 | > 128
14 | O=C(NCCS(=O)(=O)N1CCN(C(=O)NC(C(=O)N[C@H]2Cc3ccc(F)c(C(=O)O)c3OB2O)c2cc(F)c(O)c(O)c2Cl)C1=O)c1ccncc1 (stereo partly drawn) [Example 288, (3R)-3-(2-(2-chloro-5-fluoro-3,4-dihydroxyphenyl)-2-(3-((2-(isonicotinamido)ethyl)sulfonyl)-2-oxoimidazolidine-1-carboxamido)acetamido)-7-fluoro-2-hydroxy-3,4-dihydro-2H-benzo[e][1,2]oxaborinine-8-carboxylic acid] | < 10 | 8 to 16 (≈ 10.4 to 20.9 µM) | < 1 | < 1 | < 1 | 2 to 4 (≈ 2.61 to 5.22 µM) | < 1 | 2 to 4 (≈ 2.61 to 5.22 µM) | 8 to 16 (≈ 10.4 to 20.9 µM) | 2 to 4 (≈ 2.61 to 5.22 µM) | < 1
15 | O=C(NCCCS(=O)(=O)N1CCN(C(=O)NC(C(=O)N[C@H]2Cc3ccc(F)c(C(=O)O)c3OB2O)c2cc(F)c(O)c(O)c2Cl)C1=O)Nc1ccncc1 (stereo partly drawn) [Example 291, (3R)-3-(2-(2-chloro-5-fluoro-3,4-dihydroxyphenyl)-2-(2-oxo-3-((3-(3-(pyridin-4-yl)ureido)propyl)sulfonyl)imidazolidine-1-carboxamido)acetamido)-7-fluoro-2-hydroxy-3,4-dihydro-2H-benzo[e][1,2]oxaborinine-8-carboxylic acid] | < 10 | 2 to 4 (≈ 2.51 to 5.03 µM) | < 1 | 2 to 4 (≈ 2.51 to 5.03 µM) | < 1 | 2 to 4 (≈ 2.51 to 5.03 µM) | < 1 | 2 to 4 (≈ 2.51 to 5.03 µM) | > 128 | < 1 | < 1
